# Results taken from patent publication US20150150843A1, “CARDIOPROTECTIVE COMPOUNDS, THEIR USE WITH CHEMOTHERAPY, AND METHODS FOR IDENTIFYING THEM” (priority 2012, published 2015).
# Marks after values point to notes of the source that are not given here.
# How the values were obtained:
# [1] = tested on: mouse heart function; assay: Acute doxorubicin-induced HF model in mice, echocardiography; format: in vivo; details: five days
# Experimental: Five days after the initial injection, we assessed heart function by M mode echocardiogram.
# Strain C57BL/6 male mice between 8-10 weeks of age were purchased from Charles River Laboratories. […] In the control group, plain vehicle and saline were injected instead. Five days later, injected mice were subjected to echocardiography. Five days after treatment, transthoracic echocardiographic images were obtained and interpreted by an echocardiographer blinded to the experimental design using a 13.0-MHz linear probe (Vivid 7; GE Medical System, Milwaukee, Wis.) as described (Zou et al., Crit. Care Med. 38, 1335-1342, 2010; Neilan et al., Eur. Heart J. 27, 1868-1875, 2006). Mice were lightly anesthetized with ketamine (20 mg/kg). M-mode images were obtained from a parasternal short-axis view at the midventricular level with a clear view of papillary muscle. Tissue Doppler imaging was collected at a frame rate of 483 frames per second and a depth of 1 em. LV end-diastolic internal diameter (LVIDd) and LV end systolic internal diameter (LVIDS) were measured. Fractional shortening (FS) was defined as [(LVIDd−LVIDS)/LVIDd]. Strain rate of the posterior wall was analyzed offline in an EchoPAC workstation (GE Healthcare, Wauwatosa, Wis.). A region of interest (axial distance, 0.2 mm; width, 0.6 mm) was manually positioned in the middle of the posterior wall. A strain length of 0.5 mm was used. Peak systolic strain rate was measured. The temporal smoothing filters were turned off for all measurements. The values of three consecutive cardiac cycles were averaged.
# [2] = tested on: mouse cardiac sections; assay: TUNEL apoptosis assay in hearts of doxorubicin-treated mice; format: in vivo; details: one day
# Experimental: To determine if the ability of VIS and DPU to protect cardiomyocytes from apoptosis was conserved in mammals, we treated mice with doxorubicin with or without co-treatment with VIS or DPU. One day later, hearts were collected for apoptosis assays using TUNEL (Supplement FIG. 1b). […] Therefore, VIS and DPU appear to prevent doxorubicin-induced cardiac apoptosis in both zebrafish and mice.
# One day after injection, hearts were collected and fixed with 4% PFA at 4° C. overnight and then were subjected to paraffin embedding and sectioning. The heart sections were stained using the TMR TUNEL kit (Roche) following the manufacturer's protocol. The stained sections were scanned with MetaMorph-assisted slide scanning microscopy, and apoptosis indices were quantified as TUNEL positive cell/mm^2. All experiments were done at least three times, and the statistics were obtained by Student T-test.
# [3] = tested on: cardiomyocyte HL1; assay: CellTiter Glo viability of doxorubicin-treated HL1; format: cell-based, mouse; details: VIS and DPU at 20 μM
# Experimental: (§1) Cardiomyocyte line HL-1 was derived from mouse atrium tumor. Culturing conditions were previously published (Claycomb et al., Proc. Natl. Acad. Sci. USA, 95, 2979, 1998). HL 1 was cultured with Claycomb medium (Sigma) supplemented with fetal bovine serum (FBS), penicillin/streptomycin, L-glutamine and norepinephrine. DU145 and LNCaP are human prostate tumor lines, while MCF7 is a human breast cancer line. DU145 and MCF7 were cultured with high glucose DMEM (Life Sciences) supplemented with penicillin/streptomycin and L-glutamine, and LNCaP was grown in RPMI-1640 (Life Sciences) plus penicillin/streptomycin and L-glutamine. […] All experiments were done at least three times, and the statistics were obtained by Student T-test.
# [4] = tested on: caspases 3, 8 and 9 in cardiomyocyte; assay: Caspase 3, 8 and 9 activity (fluorogenic substrates) in cardiomyocyte; format: cell-based
# Experimental: We also examined effects of the compounds on apoptosis (via TUNEL staining) in cardiomyocytes and tumor cells.
# Specific activity of caspases 3, 8 and 9 were assessed semi-quantitatively using the corresponding fluorogenic substrates following manufacturer's protocols (R&D Systems). All experiments were done at least three times, and the statistics were obtained by Student T-test.
# [5] = tested on: prostate tumor cell DU145; assay: CellTiter Glo viability of doxorubicin-treated DU145; format: cell-based, human; details: VIS and DPU at 20 μM
# Experimental: as §1
# [6] = tested on: neonatal rat cardiomyoyte; assay: Doxorubicin-induced apoptosis in neonatal rat cardiomyocyte; format: cell-based
# [7] = tested on: tumor line LNCaP; assay: Doxorubicin-induced apoptosis in tumor line LNCaP; format: cell-based, human
# Experimental: (§2) Cardiomyocyte line HL-1 was derived from mouse atrium tumor. Culturing conditions were previously published (Claycomb et al., Proc. Natl. Acad. Sci. USA, 95, 2979, 1998). HL 1 was cultured with Claycomb medium (Sigma) supplemented with fetal bovine serum (FBS), penicillin/streptomycin, L-glutamine and norepinephrine. DU145 and LNCaP are human prostate tumor lines, while MCF7 is a human breast cancer line. DU145 and MCF7 were cultured with high glucose DMEM (Life Sciences) supplemented with penicillin/streptomycin and L-glutamine, and LNCaP was grown in RPMI-1640 (Life Sciences) plus penicillin/streptomycin and L-glutamine. […] Apoptosis indices were quantified as percentage of AnnexinV positive cells. All experiments were done at least three times, and the statistics were obtained by Student T-test.
# [8] = tested on: cardiomyoyte HL1; assay: AnnexinV apoptosis assay in cardiomyocyte HL1; format: cell-based, mouse
# Experimental: as §2
# [9] = tested on: JNK phosphorylation in HL 1 cells; assay: JNK phosphorylation western blot in HL 1 cells; format: cell-based, mouse
# Text: (§3) In an effort to identify pathways involved in VIS and DPU mediated cardioprotection, we screened a panel of kinases by western blotting. […] To confirm the cardiomyocyte-specific inhibition of JNK signaling, we used a luciferase-based AP1 reporter assay to detect JNK activation in HL 1 and DU145 cells.
# Blots were quantified by densitometry with Image J. All experiments were done at least three times, and the statistics were obtained by Student T-test.
# [10] = tested on: zebrafish heart; assay: Doxorubicin-induced heart failure model in zebrafish (heart contraction, tail circulation, morphology, fractional shortening); format: in vivo
# Experimental: For screening, about 400 nl of small molecule stock solution was transferred from 96-well format library plates to fish plate with transfer pins. At dpf 3, treated fish were screened under inverted fluorescent microscope (100×) for heart contraction and tail circulation.
# Zebrafish have been used successfully for high-throughput screening (HTS) to identify chemical compounds that suppress genetic defects and other disease states (Peterson et al., Methods Cell. Biol. 105, 525-541, 2011). Compared to cell-based in vitro systems, in vivo screening offers several advantages, including the ability to discover compounds with therapeutic activity even without knowing their molecular targets. In addition, compounds discovered by in vivo screening are selected for their ability to be effective in the complex context of the disease of interest. […] Heart contraction was dramatically compromised, resulting in the absence of blood cell circulation within tail blood vessels. Using a high-speed camera and a custom analysis algorithm, we were able to calculate the fractional shortening of the zebrafish hearts. […] Therefore, the zebrafish model appears to recapitulate several key aspects of the doxorubicin-induced heart failure seen in humans, including increased apoptosis and reduced contractility. Because the doxorubicin-induced changes in cardiac function and blood circulation are easily detected visually, they formed the basis of an assay to identify small molecules suppressing doxorubicin-induced cardiotoxicity.
# Hearts were surgically removed and briefly fixed with 4% paraformaldehyde (PFA) for 20 minutes at room temperature. The fixed heart samples were embedded in mounting medium and flattened with slide and coverslip. Confocal images were captured from the flattened hearts, and red nuclei were counted. All experiments were done at least three times, and the statistics were obtained by Student T-test.
# In order to confirm and quantify the activity of compounds with cardioprotective properties identified in the preceding assays, a high-resolution assay of cardiac function, described by Shin et al. (Physiol Genomics. 2010 July; 42(2): 300-309), can be used to measure heart fractional shortening.
# [11] = tested on: zebrafish cardiomyocytes; assay: TUNEL staining of apoptotic cardiomyocytes in doxorubicin-treated zebrafish; format: in vivo
# Experimental: Because cardiomyocyte apoptosis plays a critical role in mediating doxorubicin-induced cardiomyopathy, we sought to determine if VIS Aand DPU attenuate heart failure by inhibiting cardiomyocyte apoptosis.
# Hearts were surgically removed and fixed with 4% paraformaldehyde (PFA) for 20 minutes at room temperature. After staining with an in situ TUNEL kit (Roche), heart samples were embedded in mounting medium and flattened with slide and coverslip, and then subjected to confocal microscopy. The data were quantified as percentage of TUNEL positive cardiomyocytes. All experiments were done at least three times, and the statistics were obtained by Student T-test.
# [12] = tested on: JNK phosphorylation in DU145 cells; assay: JNK phosphorylation western blot in DU145 cells; format: cell-based, human
# Text: as §3
# [13] = tested on: JNK responsive reporter AP-1 in DU145 cells; assay: AP-1 luciferase reporter assay in DU145 cells; format: cell-based, human; details: doxorubicin-treated
# Text: as §3
# [14] = tested on: JNK responsive reporter AP-1 in HL 1 cells; assay: AP-1 luciferase reporter assay in HL 1 cells; format: cell-based, mouse; details: doxorubicin-treated
# Text: as §3
# [15] = tested on: mouse heart function; assay: Chronic low-dose doxorubicin treatment in mice, echocardiography; format: in vivo; details: low doses of doxorubicin 5 times over 5 weeks
# Text: Labels: DMSO: DMSO-treated control samples; Dox: doxorubicin-treated samples; Dox+VIS: doxorubicin and VIS co-treated samples; Dox+DPU: doxorubicin and DPU co-treated samples.
# [16] = tested on: tumor line MCF7; assay: Doxorubicin-induced apoptosis in tumor line MCF7; format: cell-based, human
# Experimental: as §2
# [17] = tested on: tumor line DU145; assay: Doxorubicin-induced apoptosis in tumor line DU145; format: cell-based, human
# Experimental: as §2
# [18] = patients; cited from earlier work
# [19] = zebrafish treated with doxorubicin
# [20] = mice, 15 mg/kg doxorubicin IP, with or without 25 mg/kg VIS IP, mean ± SEM
smiles,measurement,setting,value
"COc1c2ccoc2cc2oc(C)cc(=O)c12 [VIS, visnagin]",fractional shortening and strain rate compared to mice treated with doxorubicin alone,[1]; 25 mg/kg VIS immediately prior to 15 mg/kg doxorubicin IP,significant improvement
same,doxorubicin-induced apoptosis in mouse heart (TUNEL),[2]; 15 mg/kg doxorubicin plus 25 mg/kg visnagin or 10 mg/kg diphenylurea IP,significantly decreased doxorubicin-induced apoptosis
same,viability of doxorubicin-treated cardiomyocyte HL1,[3],increase viability
same,"activity of caspases 3, 8 and 9 activated by doxorubicin",[4],inhibited
same,viability of doxorubicin-treated prostate tumor cell DU145,[5],do not increase viability
same,"doxorubicin-induced apoptosis, AnnexinV staining",[6],inhibit doxorubicin-induced apoptosis
same,"doxorubicin-induced apoptosis, TUNEL staining",[6],inhibit doxorubicin-induced apoptosis
same,doxorubicin-induced apoptosis,[7],do not reduce doxorubicin-induced apoptosis
same,"doxorubicin-induced apoptosis, AnnexinV staining",[8],reduce doxorubicin-induced apoptosis
same,doxorubicin-induced JNK phosphorylation,[9],inhibit doxorubicin-induced JNK phosphorylation
same,cardiac contractility as measured by fractional shortening,[10]; [19],completely rescued cardiac contractility
same,"overt morphological effects of doxorubicin on the heart (ventricular compaction, pericardial edema)",[10]; [19],prevented the overt morphological effects of doxorubicin on the heart
same,number of apoptotic cardiomyocytes induced by doxorubicin (TUNEL),"[11]; 100 μM doxorubicin plus 20 μM rescue compound, two days",greatly reduced the number of apoptotic cardiomyocytes
same,doxorubicin-induced JNK phosphorylation,[12],do not inhibit doxorubicin-induced JNK phosphorylation
same,AP-1 luciferase activity,[13],not repressed
same,AP-1 luciferase activity,[14],repressed
same,doxorubicin-induced reduction of fractional shortening,[15],partially reversed the reduction
same,doxorubicin-induced reduction of strain rate,[15],partially reversed the reduction
same,doxorubicin-induced apoptosis,[16],do not reduce doxorubicin-induced apoptosis
same,doxorubicin-induced apoptosis,[17],do not reduce doxorubicin-induced apoptosis
COc1cccc2c1C(=O)c1c(O)c3c(c(O)c1C2=O)C[C@@](O)(C(=O)CO)C[C@@H]3O[C@H]1C[C@H](N)[C@H](O)[C@H](C)O1 [doxorubicin],FS,[1]; [20],44 ± 2 %
same,HR,[1]; [20],609 ± 23 beats/min
same,LVIDs,[1]; [20],1.78 ± 0.10 mm
same,Strain Rate,[1]; [20],16 ± 1*** 1/sec
same,increase in apoptosis in mouse cardiac sections (TUNEL),[2]; 15 mg/kg doxorubicin IP,3- to 4 fold
same,atrium and ventricle cardiomyocyte numbers compared to controls,"[10]; 100 μM doxorubicin for two days, cmlc2-dsRed line",significantly reduced
same,heart rate and contractility,"[10]; 100 μM doxorubicin from 1 dpf, assessed at 3 dpf",dramatically reduced
same,pericardial edema,"[10]; 100 μM doxorubicin from 1 dpf, two days exposure",extensive pericardial edema
same,increase in apoptotic cardiomyocytes (TUNEL),"[11]; doxorubicin 100 μM, 4 dpf zebrafish",four-fold increase
same,cumulative dosages that exponentially increase the risk of heart failure,[18],above 450 mg/m^2
